ChEMBL document CHEMBL2396621, “Design, synthesis and biological evaluation of 2-mercapto-3-phenethylquinazoline bearing anilide fragments as potential antitumor agents: molecular docking study” (2013)

Assays:
Format in all cases: functional
NCI-H322M = assay: Cytotoxicity against human NCI-H322M cells assessed as growth inhibition at 10 uM after 48 hrs by coulter counter analysis; details: read-out: GI
NCI-H23 = assay: Cytotoxicity against human NCI-H23 cells assessed as growth inhibition at 10 uM after 48 hrs by coulter counter analysis; details: NCI-H23, 48 h, read-out: GI
NCI-H226 = assay: Cytotoxicity against human NCI-H226 cells assessed as growth inhibition at 10 uM after 48 hrs by coulter counter analysis; details: NCI-H226, 48 h, read-out: GI
[1] = Cytotoxicity against human EKVX cells assessed as growth inhibition at 10 uM after 48 hrs by coulter counter analysis; details: read-out: GI
T47D = assay: Cytotoxicity against human T47D cells assessed as growth inhibition at 10 uM after 48 hrs by coulter counter analysis; details: read-out: GI
BT-549 = assay: Cytotoxicity against human BT549 cells assessed as growth inhibition at 10 uM after 48 hrs by coulter counter analysis; details: BT-549, 48 h, read-out: GI
Hs-578T = assay: Cytotoxicity against human Hs578T cells assessed as growth inhibition at 10 uM after 48 hrs by coulter counter analysis; details: read-out: GI
MCF7 = assay: Cytotoxicity against human MCF7 cells assessed as growth inhibition at 10 uM after 48 hrs by coulter counter analysis; details: MCF7, 48 h, read-out: GI
DU-145 = assay: Cytotoxicity against human DU145 cells assessed as growth inhibition at 10 uM after 48 hrs by coulter counter analysis; details: DU-145, 48 h, read-out: GI
PC-3 = assay: Cytotoxicity against human PC3 cells assessed as growth inhibition at 10 uM after 48 hrs by coulter counter analysis; details: PC-3, 48 h, read-out: GI
UO-31 = assay: Cytotoxicity against human UO31 cells assessed as growth inhibition at 10 uM after 48 hrs by coulter counter analysis; details: UO-31, 48 h, read-out: GI
TK-10 = assay: Cytotoxicity against human TK10 cells assessed as growth inhibition at 10 uM after 48 hrs by coulter counter analysis; details: TK-10, 48 h, read-out: GI
RXF 393 = assay: Cytotoxicity against human RXF393 cells assessed as growth inhibition at 10 uM after 48 hrs by coulter counter analysis; details: RXF 393, 48 h, read-out: GI
ACHN = assay: Cytotoxicity against human ACHN cells assessed as growth inhibition at 10 uM after 48 hrs by coulter counter analysis; details: read-out: GI
SK-OV-3 = assay: Cytotoxicity against human SKOV3 cells assessed as growth inhibition at 10 uM after 48 hrs by coulter counter analysis; details: SK-OV-3, 48 h, read-out: GI
786-0 = assay: Cytotoxicity against human 786-0 cells assessed as growth inhibition at 10 uM after 48 hrs by coulter counter analysis; details: 786-0, 48 h, read-out: GI
OVCAR-8 = assay: Cytotoxicity against human OVCAR8 cells assessed as growth inhibition at 10 uM after 48 hrs by coulter counter analysis; details: OVCAR-8, 48 h, read-out: GI
OVCAR-4 = assay: Cytotoxicity against human OVCAR4 cells assessed as growth inhibition at 10 uM after 48 hrs by coulter counter analysis; details: OVCAR-4, 48 h, read-out: GI
OVCAR-3 = assay: Cytotoxicity against human OVCAR3 cells assessed as growth inhibition at 10 uM after 48 hrs by coulter counter analysis; details: OVCAR-3, 48 h, read-out: GI
IGROV-1 = assay: Cytotoxicity against human IGROV1 cells assessed as growth inhibition at 10 uM after 48 hrs by coulter counter analysis; details: IGROV-1, 48 h, read-out: GI
UACC-62 = assay: Cytotoxicity against human UACC62 cells assessed as growth inhibition at 10 uM after 48 hrs by coulter counter analysis; details: UACC-62, 48 h, read-out: GI
UACC-257 = assay: Cytotoxicity against human UACC257 cells assessed as growth inhibition at 10 uM after 48 hrs by coulter counter analysis; details: UACC-257, 48 h, read-out: GI
SK-MEL-5 = assay: Cytotoxicity against human SK-MEL-5 cells assessed as growth inhibition at 10 uM after 48 hrs by coulter counter analysis; details: SK-MEL-5, 48 h, read-out: GI
SK-MEL-28 = assay: Cytotoxicity against human SK-MEL-28 cells assessed as growth inhibition at 10 uM after 48 hrs by coulter counter analysis; details: SK-MEL-28, 48 h, read-out: GI
LOX IMVI = assay: Cytotoxicity against human LOXIMVI cells assessed as growth inhibition at 10 uM after 48 hrs by coulter counter analysis; details: read-out: GI
U-251 = assay: Cytotoxicity against human U251 cells assessed as growth inhibition at 10 uM after 48 hrs by coulter counter analysis; details: U-251, 48 h, read-out: GI
SNB-75 = assay: Cytotoxicity against human SNB75 cells assessed as growth inhibition at 10 uM after 48 hrs by coulter counter analysis; details: SNB-75, 48 h, read-out: GI
SNB-19 = assay: Cytotoxicity against human SNB19 cells assessed as growth inhibition at 10 uM after 48 hrs by coulter counter analysis; details: SNB-19, 48 h, read-out: GI
SF-539 = assay: Cytotoxicity against human SF539 cells assessed as growth inhibition at 10 uM after 48 hrs by coulter counter analysis; details: SF-539, 48 h, read-out: GI
SF-295 = assay: Cytotoxicity against human SF295 cells assessed as growth inhibition at 10 uM after 48 hrs by coulter counter analysis; details: SF-295, 48 h, read-out: GI
SF-268 = assay: Cytotoxicity against human SF268 cells assessed as growth inhibition at 10 uM after 48 hrs by coulter counter analysis; details: SF-268, 48 h, read-out: GI
KM12 = assay: Cytotoxicity against human KM12 cells assessed as growth inhibition at 10 uM after 48 hrs by coulter counter analysis; details: KM12, 48 h, read-out: GI
HT-29 = assay: Cytotoxicity against human HT-29 cells assessed as growth inhibition at 10 uM after 48 hrs by coulter counter analysis; details: HT-29, 48 h, read-out: GI
HCT-116 = assay: Cytotoxicity against human HCT116 cells assessed as growth inhibition at 10 uM after 48 hrs by coulter counter analysis; details: HCT-116, 48 h, read-out: GI
COLO 205 = assay: Cytotoxicity against human COLO205 cells assessed as growth inhibition at 10 uM after 48 hrs by coulter counter analysis; details: COLO 205, 48 h, read-out: GI
NCI-H522 = assay: Cytotoxicity against human NCI-H522 cells assessed as growth inhibition at 10 uM after 48 hrs by coulter counter analysis; details: NCI-H522, 48 h, read-out: GI
NCI-H460 = assay: Cytotoxicity against human NCI-H460 cells assessed as growth inhibition at 10 uM after 48 hrs by coulter counter analysis; details: NCI-H460, 48 h, read-out: GI

SMILES	inhibition of growth at 10 µM (NCI-H322M)	inhibition of growth at 10 µM (NCI-H23)	inhibition of growth at 10 µM (NCI-H226)	inhibition of growth at 10 µM [1]	inhibition of growth at 10 µM (T47D)	inhibition of growth at 10 µM (BT-549)	inhibition of growth at 10 µM (Hs-578T)	inhibition of growth at 10 µM (MCF7)	inhibition of growth at 10 µM (DU-145)	inhibition of growth at 10 µM (PC-3)	inhibition of growth at 10 µM (UO-31)	inhibition of growth at 10 µM (TK-10)	inhibition of growth at 10 µM (RXF 393)	inhibition of growth at 10 µM (ACHN)	inhibition of growth at 10 µM (SK-OV-3)	inhibition of growth at 10 µM (786-0)	inhibition of growth at 10 µM (OVCAR-8)	inhibition of growth at 10 µM (OVCAR-4)	inhibition of growth at 10 µM (OVCAR-3)	inhibition of growth at 10 µM (IGROV-1)	also measured
O=C(CSc1nc2ccccc2c(=O)n1CCc1ccccc1)Nc1ccccc1	< 10%	11%	< 10%	16%	13%	< 10%	< 10%	19%	< 10%	10%	< 10%	< 10%	< 10%	< 10%	14%	< 10%	< 10%	< 10%	< 10%	< 10%	inhibition of growth at 10 µM (UACC-62): 16%; inhibition of growth at 10 µM (UACC-257): < 10%; inhibition of growth at 10 µM (SK-MEL-5): 13%; inhibition of growth at 10 µM (SK-MEL-28): < 10%; inhibition of growth at 10 µM (LOX IMVI): 11%; inhibition of growth at 10 µM (U-251): < 10%; inhibition of growth at 10 µM (SNB-75): 12%; inhibition of growth at 10 µM (SNB-19): < 10%; inhibition of growth at 10 µM (SF-539): < 10%; inhibition of growth at 10 µM (SF-295): < 10%; inhibition of growth at 10 µM (SF-268): < 10%; inhibition of growth at 10 µM (KM12): < 10%; inhibition of growth at 10 µM (HT-29): < 10%; inhibition of growth at 10 µM (HCT-116): 15%; inhibition of growth at 10 µM (COLO 205): < 10%; inhibition of growth at 10 µM (NCI-H522): 10%; inhibition of growth at 10 µM (NCI-H460): < 10%
COc1cc(NC(=O)CSc2nc3ccccc3c(=O)n2CCc2ccccc2)cc(OC)c1OC	73%	74%	> 100%	35%	> 100%	> 100%	64%	49%	55%	59%	> 100%	> 100%	55%	> 100%	> 100%	> 100%	70%	47%	> 100%	92%	inhibition of growth at 10 µM (UACC-62): 25%; inhibition of growth at 10 µM (UACC-257): 61%; inhibition of growth at 10 µM (SK-MEL-5): > 100%; inhibition of growth at 10 µM (SK-MEL-28): 63%; inhibition of growth at 10 µM (LOX IMVI): 70%; inhibition of growth at 10 µM (U-251): > 100%; inhibition of growth at 10 µM (SNB-75): > 100%; inhibition of growth at 10 µM (SNB-19): 73%; inhibition of growth at 10 µM (SF-539): > 100%; inhibition of growth at 10 µM (SF-295): 49%; inhibition of growth at 10 µM (SF-268): 87%; inhibition of growth at 10 µM (KM12): 93%; inhibition of growth at 10 µM (HT-29): 85%; inhibition of growth at 10 µM (HCT-116): > 100%; inhibition of growth at 10 µM (COLO 205): 71%; inhibition of growth at 10 µM (NCI-H522): > 100%; inhibition of growth at 10 µM (NCI-H460): > 100%
O=C(CSc1nc2ccccc2c(=O)n1CCc1ccccc1)Nc1cc(Cl)ccc1C(=O)O	< 10%	< 10%	< 10%	20%	< 10%	10%	< 10%	< 10%	< 10%	< 10%	18%	< 10%	< 10%	< 10%	< 10%	< 10%	< 10%	< 10%	< 10%	< 10%	inhibition of growth at 10 µM (UACC-62): < 10%; inhibition of growth at 10 µM (UACC-257): < 10%; inhibition of growth at 10 µM (SK-MEL-5): < 10%; inhibition of growth at 10 µM (SK-MEL-28): < 10%; inhibition of growth at 10 µM (LOX IMVI): < 10%; inhibition of growth at 10 µM (U-251): < 10%; inhibition of growth at 10 µM (SNB-75): 20%; inhibition of growth at 10 µM (SNB-19): < 10%; inhibition of growth at 10 µM (SF-539): < 10%; inhibition of growth at 10 µM (SF-295): < 10%; inhibition of growth at 10 µM (SF-268): < 10%; inhibition of growth at 10 µM (KM12): < 10%; inhibition of growth at 10 µM (HT-29): < 10%; inhibition of growth at 10 µM (HCT-116): < 10%; inhibition of growth at 10 µM (COLO 205): < 10%; inhibition of growth at 10 µM (NCI-H522): < 10%; inhibition of growth at 10 µM (NCI-H460): < 10%
COc1cc(NC(=O)CCSc2nc3ccccc3c(=O)n2CCc2ccccc2)cc(OC)c1OC	28%	28%	10%	34%	47%	13%	67%	33%	< 10%	25%	22%	17%	12%	21%	44%	29%	28%	51%	11%	21%	inhibition of growth at 10 µM (UACC-62): 30%; inhibition of growth at 10 µM (UACC-257): 72%; inhibition of growth at 10 µM (SK-MEL-5): 31%; inhibition of growth at 10 µM (SK-MEL-28): 42%; inhibition of growth at 10 µM (LOX IMVI): 54%; inhibition of growth at 10 µM (U-251): 25%; inhibition of growth at 10 µM (SNB-75): 38%; inhibition of growth at 10 µM (SNB-19): 12%; inhibition of growth at 10 µM (SF-539): 70%; inhibition of growth at 10 µM (SF-295): 10%; inhibition of growth at 10 µM (SF-268): 26%; inhibition of growth at 10 µM (KM12): 39%; inhibition of growth at 10 µM (HT-29): 18%; inhibition of growth at 10 µM (HCT-116): 40%; inhibition of growth at 10 µM (COLO 205): 20%; inhibition of growth at 10 µM (NCI-H522): 52%; inhibition of growth at 10 µM (NCI-H460): 17%
